Assay results reported in US10583124B2, “Wild bird treatment composition and methods” (priority 2016, dated 2020).
Like-named read-outs stand apart in the source and are kept apart here.

Legend:
[1] = format: physicochemical; conditions: in acetonitrile, positive control, 1 hour
Protocol: Composition 10 was exposed to elevated temperature (75° C.) for 1 hour to determine if fenbendazole inside composition 10 was being protected from the effects of high temperature. Control composition 10 was left at room temperature for the same time period. Additionally, 100 ppm fenbendazole in acetonitrile was used as a positive control and exposed to the same conditions (room and elevated temperature for 1 hour).

[2] = as long as protected from photo oxidation; cited from earlier work

Fenbendazole extracted from 100 ppm fenbendazole solution ([1]; 21 °C (room temperature)): 115.18 ppm | Fenbendazole extracted from 100 ppm fenbendazole solution ([1]; 75 °C): 93.36 ppm
SMILES: COC(=O)Nc1nc2ccc(Sc3ccccc3)cc2[nH]1 [fenbendazole]
humidity range in which stable [2]: 10-100% | temperature range in which stable [2]: 4.4-37.7 °C
